Measurements reported in patent US20260209299A1, “TROP2 IMMUNOGENIC PEPTIDE” (ASTON SCIENCE INC., priority 2023, published 2026).

Assays:
[1] = test system: interferon-gamma (IFN-γ)-forming T cells; experiment: ELISpot assay of IFN-γ-forming T cells using PBMC; assay type: cell-based; conditions: FIG. 5; human PBMCs, peptide 10 μg/mL, 70-72 hours
Procedure: The frequency of interferon-gamma (IFN-γ, 3420-4HPW-10, MabTech, Stockholm, Sweden) and interleukin-10 (IL-10, 3430-4HPW-10, MabTech)-forming T cells was assessed using the ELISpot assay.
Specifically, the pre-coated plates were washed four times with 200 μL/well of PBS. Human PBMCs (PCS-800-011, ATCC, Virginia, USA) 2×10^6/mL were dispensed onto the coated plate, and TROP2 peptides were dispensed at 10 μg/mL each and reacted with the PBMCs. The plate reacted under a total volume of 200 μL/well was incubated at 5% CO2, 37° C. for 70-72 hours. Then, the plate was washed 5 times with 200 μL of PBS, and 200 μL of diluted detection antibody (IFN-γ:7-B6-1-biotin; IL-10:12G8-biotin) was added to the wells of the plate, and then reacted at room temperature for 2 hours. After the reaction, the plate was washed 5 times with 200 μL of PBS, and 1:1000 diluted streptavidin-HRP was added at 100 μL/well, followed by reaction at room temperature for 1 hour. Then, the resulting product was washed 5 times with 200 μL of PBS, 100 μL/well of TMB substrate solution was added and reacted at RT for up to 5-10 minutes, and then the spots were counted using the AID iSpot reader system (AID, Strassberg, Germany).

[2] = test system: regulatory T cells (CD4^+CD25^+Foxp3^+); experiment: FACS analysis of regulatory T cells (CD4+CD25+Foxp3+) after peptide treatment of PBMCs; assay type: cell-based; conditions: healthy human PBMCs, peptide 10 μg/ml with 1 μg/ml anti-CD3, 72 hours, then PMA/ionomycin + GolgiPlug 6 hours
Procedure: (§1) To this end, the degree of stimulation of Type 1 helper T cells (CD4^+IFN-γ^+), stimulation of interleukin 10 (IL-10)-producing regulatory T cells (CD4^+IL-10+), stimulation of regulatory T cells (CD4^+CD25^+Foxp3^+), and stimulation of Type 2 helper T cells secreting IL-4 and Th17 cells secreting IL-17 according to the treatment with the immunogenic peptide were confirmed.
(§2) Healthy human peripheral blood mononuclear cells (PBMCs; 2,000,000 cells per well) were cultured in 96× round bottom well plates in the presence or absence of anti-CD3 (clone HIT) and peptide at the indicated ratios.
(§3) Specifically, the peptide synthesized in Example 1 at a concentration of 10 μg/ml was cultured with 1 μg/ml of anti-CD3 in a 37° C. incubator for 72 hours. The culture medium consisted of complete RPMI1640 medium supplemented with 10% fetal bovine serum, 10 mM HEPES, 50 µM B-ME, and penicillin/streptomycin/L-glutamine. After 72 hours of culture, the cells were stimulated with Phorbol 12-myristate 13-acetate (50 ng/ml) and Ionomycine (1 μg/mL), which are intracellular cytokine secretion stimulators. To prevent cytokine secretion into the culture medium, the cells were co-stimulated with GolgiPlug, a protein transport inhibitor, at a concentration of 1/100 diluted in PBS for 6 hours in a 37° C. incubator. After stimulation, the cells were washed twice with PBS.
(§4) To determine only the viable cells among the PBMC cells, the cells were labeled with eFlor780-conjugated Fixable Viability dye diluted 1:100 in PBS for 15 minutes at 4° C., and washed twice with stain buffer after 15 minutes. After washing, the cells were surface-labeled with BV421-conjugated anti-CD4 (clone RPA-T4) and PE-Cy5-conjugated anti-CD25 (clone 2A3) antibodies diluted 1:100 in stain buffer for 30 minutes at 4° C. Then, the cells labeled with cell surface proteins were washed twice with stain buffer. Next, to detect cytokines secreted intracellularly, the cells were fixed for 1 hour at room temperature with fixation buffer and then washed with permeabilization buffer. To enable antibodies to detect intracellular cytokines, the fixed cells were labeled overnight at 4° C. with PerCP-Cy5. 5-conjugated anti-IFN-g (clone 4S. B3), Brilliant Violet 510-conjugated anti-IL-4 (clone MP4-25D2), anti-Foxp3 (clone PCH101), and PE-conjugated anti-IL-10 diluted 1:100 in permeabilization (clone JES3-19F1) buffer. Then, the cytokine-labeled cells were washed twice with stain buffer, and cell flow assays were performed using an Attune NxT Acoustic Focusing Cytometer (Invitrogen). Data analysis was performed using Flowjo v10.7.1 software (FlowJo).
(§5) The activity results of the immunogenic peptide candidate group were confirmed by first isolating CD4^+ T cells (helper T cells) from PBMCs, and then classifying the isolated cells into Type 1 helper T cells (CD4^+IFN-γ^+), Type 2 helper T cells (CD4^+IL-4^+), regulatory T cells (CD4^+CD25^+Foxp3^+), and interleukin-10 (IL-10)-producing regulatory T cells (CD4^+IL-10^+) and analyzing the results.

[3] = test system: Type 1 helper T cells (CD4^+IFN-γ^+); experiment: FACS analysis of Type 1 helper T cells (CD4+IFN-γ+) after peptide treatment of PBMCs; assay type: cell-based, human; conditions: for Combined Score: (A value×0.8)+(B value×0.2); for IFN-gamma − IL-10: A value: difference between distribution of IFN-γ secreting T cells and distribution of IL-10 secretion; for IFN-gamma − Treg: B value: difference between distribution of IFN-γ secreting T cells and Treg distribution; for IFN-gamma (Th1, CD4+): FACS, healthy human PBMCs, peptide 10 μg/ml with 1 μg/ml anti-CD3, 72 hours, then PMA/ionomycin + GolgiPlug 6 hours; for stimulation of Type 1 helper T cells (CD4+IFN-γ+), flow cytometry plot: FIG. 1, peptide together with PMA, ionomycin; for effect of stimulating Type 1 helper T cells while not stimulating Type 2 helper T cells and regulatory T cells: overall FACS conclusion, Table 2
Procedure: as §1, §2, §3, §4
1) Calculate the difference between the distribution of IFN-γ secreting T cells and the distribution of IL-10 secretion (A value),
2) Calculate the difference between the distribution of IFN-γ secreting T cells and the Treg distribution (B value),
3) Use the formula “(A value×0.8)+(B value×0.2)” as the final combined scoring, and
as §5

MDA-MB-231 cell line [4] = experiment: Antitumor effect of cancer vaccine alone in Xenograft cancer mouse model; assay type: in vivo, athymic Balb/C nude mice; conditions: peptide + CFA/IFA + mGM-CSF, 100 μg per mouse subcutaneously on days 1, 8, 15, 22; vs control group G1
Procedure: (§6) Five-week-old athymic Balb/C nude mice weighing 16 to 18 g were purchased and acclimated for at least 3 to 7 days.
(§7) The MDA-MB-231 cell line, a human-derived triple-negative breast cancer cell line, was suspended at 5×10^6 cells per individual in 200 μl of a 1:1 mixture of PBS and Matrigel and injected subcutaneously into the axillary region between the right scapular area and the thoracic wall of the mouse.
On Day 16 after MDA-MB-231 cell transplantation, 32 mice (mean tumor size 143.8±2.9 mm^3) with tumor sizes reaching approximately 150 mm^3 were selected and assigned to each group of 8 mice.
Each group was divided into Group 1 (G1): PBS+CFA/IFA, Group 2 (G2): SEQ ID NO: 3 peptide+CFA/IFA+mGM-CSF, Group 3 (G3): SEQ ID NO: 10 peptide+CFA/IFA+mGM-CSF, and Group 4 (G4): SEQ ID NO: 17 peptide+CFA/IFA+mGM-CSF.
(§8) Next, the immunogenic peptide (TROP2 peptide) according to the present invention was administered subcutaneously at a dose of 100 μg per mouse on days 1, 8, 15, and 22 (the 16th day after cell transplantation was designated as Day 0, and the following day was designated as Day 1) for a total of 4 times, and the tumor size for each individual was calculated 11 times (0, 1, 4, 7, 11, 14, 18, 21, 25, 28, and 32) from Day 0 to Day 32. Then, the tumor growth change rate was calculated by comparison with the control group of each Test Group.

[5] = test system: Type 2 helper T cells (CD4^+IL-4^+); experiment: FACS analysis of Type 2 helper T cells (CD4+IL-4+) after peptide treatment of PBMCs; assay type: cell-based, human; conditions: FIG. 2; peptide together with PMA, ionomycin
Procedure: as §1, §2, §3
as §4, with “(FlowJo). […]” for “(FlowJo).”

[6] = test system: interleukin 10 (IL-10)-producing regulatory T cells (CD4^+IL-10^+); experiment: FACS analysis of IL-10-producing regulatory T cells (CD4+IL-10+) after peptide treatment of PBMCs; assay type: cell-based; conditions: healthy human PBMCs, peptide 10 μg/ml with 1 μg/ml anti-CD3, 72 hours, then PMA/ionomycin + GolgiPlug 6 hours
Procedure: as §2, §3, §4

MDA-MB-231 cell line [7] = experiment: Antitumor effect of cancer vaccine and antibody-drug conjugate (ADC) in Xenograft cancer mouse model; assay type: in vivo, athymic Balb/C nude mice; conditions: peptide mix + CFA/IFA + mGM-CSF subcutaneously days 1, 8, 15, 22; Trodelvy 0.81 mg/kg intravenously Days 4 and 11
Procedure: as §6, §7, §8
In order to confirm the antitumor effect of the combination therapy of the immunogenic peptide discovered in the present invention and antibody-drug conjugate (ADC), the antitumor effect was analyzed for the following groups using the same experimental method as in Example 4. […]

Row | Substance | number of cells secreting IFN-γ (ELISpot spots) [1] | Treg (CD25+/Foxp3) [2] [%] | Combined Score [3] | IFN-gamma − IL-10 [3] [%] | IFN-gamma − Treg [3] [%] | IFN-gamma (Th1, CD4+) [3] [%] | TGI rate (%) at Day 32 (MDA-MB-231 cell line [4]) [%] | stimulation of Type 2 helper T cells (CD4+IL-4+), flow cytometry plot [5] | stimulation of Type 1 helper T cells (CD4+IFN-γ+), flow cytometry plot [3] | effect of stimulating Type 1 helper T cells while not stimulating Type 2 helper T cells and regulatory T cells [3] | IL-10 (Th2, CD4+) [6] [%] | TGI rate (%) at Day 32 (MDA-MB-231 cell line [7]) [%]
1 | EPLQVERTLIYYLDE [SEQ ID NO: 19] | dramatically increased the secretion of IFN-γ | – | – | – | – | – | – | – | – | – | – | –
2 | PKFSMKRLTAGLIAVIV [SEQ ID NO: 22] | – | 7.65 | 11.25 | 11.75 | 9.25 | 16.90 | – | – | – | – | – | –
3 | PLRLPLLLLVLAAVTGHTAAQD [SEQ ID NO: 3] | dramatically increased the secretion of IFN-γ | 8.84 | 20.36 | 21.66 | 15.16 | 24.00 | 52.4 | hardly stimulated Type 2 helper T cells (CD4^+IL-4^+) | stimulated Type 1 helper T cells (CD4^+IFN-γ^+) to a high degree | most excellent | 2.34 | –
4 | RERYRLHPKFVAAVH [SEQ ID NO: 15] | – | 7.93 | 12.27 | 12.87 | 9.87 | 17.80 | – | – | – | – | 4.93 | –
5 | TLIYYLDEIPPKFSM [SEQ ID NO: 20] | – | 8.07 | 10.26 | 10.82 | 8.03 | 16.10 | – | – | – | – | 5.28 | –
6 | sacituzumab govitecan [Trodelvy] | – | – | – | – | – | – | – | – | – | – | – | 46.1
7 | SLRCDELVRTHHILIDLRHRPTAGAFN [SEQ ID NO: 11] | – | 8.23 | 11.16 | 11.71 | 8.97 | 17.20 | – | – | – | – | 5.49 | –
8 | LVRPSEHALVDNDGL [SEQ ID NO: 10] | dramatically increased the secretion of IFN-γ | 7.66 | 17.84 | 18.97 | 13.34 | 21.00 | 38.5 | hardly stimulated Type 2 helper T cells (CD4^+IL-4^+) | stimulated Type 1 helper T cells (CD4^+IFN-γ^+) to a high degree | most excellent | 2.03 | –
9 | RGEPLQVERTLIYYL [SEQ ID NO: 18] | – | 8.01 | 19.62 | 20.80 | 14.89 | 22.90 | – | hardly stimulated Type 2 helper T cells (CD4^+IL-4^+) | stimulated Type 1 helper T cells (CD4^+IFN-γ^+) to a high degree | most excellent | 2.10 | –
10 | ELRONTSQKAAGDVD (ELRQNTSQKAAGDVD) [SEQ ID NO: 17] | dramatically increased the secretion of IFN-γ | 8.17 | 20.02 | 21.27 | 15.03 | 23.20 | 57.2 | hardly stimulated Type 2 helper T cells (CD4^+IL-4^+) | stimulated Type 1 helper T cells (CD4^+IFN-γ^+) to a high degree | most excellent | 1.93 | –
11 | SKCLLLKARMSAPKN [SEQ ID NO: 8] | – | 8.22 | 11.06 | 11.65 | 8.68 | 16.90 | – | – | – | – | 5.25 | –
12 | AGLIAVIVVVVVALVAGMAVLVITNRRKSGKYKK [SEQ ID NO: 24] | – | 7.10 | 11.88 | 12.35 | 10.00 | 17.10 | – | – | – | – | 4.75 | –
